Measured values published in patent publication US20130029962A1, “Substituted Heteroaromatic Pyrazole-Containing Carboxamide and Urea Compounds as Vanilloid Receptor Ligands” (Gruenenthal GmbH, priority 2011, published 2013).

Target: T1, vanilloid receptor 1 (VR1/TRPV1 receptor) (Homo sapiens, UniProt Q8NER1)
T1 construct: expressed in transfected cells; host or cells: CHO K1
Experiment: Functional testing on the vanilloid receptor 1 (VR1/TRPV1): FLIPR Ca2+ influx assay, displacement of capsaicin
Assay type: cell-based, human being
Parameters: key to mode of action at VR1/TRPV1 (AG, pAG, NE), Cap: AG=agonist; NE=no effect; pAG=partial agonist
Details: 5 μM compound; capsaicin (Cap); human being; read-out: inhibition (as a percentage) at the concentration after @, Cap
Experimental: Furthermore, preference may be given to compounds according to the invention that cause a 50 percent displacement of capsaicin, which is present at a concentration of 100 nM, in a FLIPR assay with CHO K1 cells which were transfected with the human VR1 gene at a concentration of less than 2,000 nM, preferably less than 1,000 nM, particularly preferably less than 300 nM, most particularly preferably less than 100 nM, even more preferably less than 75 nM, additionally preferably less than 50 nM, most preferably less than 10 nM.
In the process, the Ca^2+ influx is quantified in the FLIPR assay with the aid of a Ca^2+-sensitive dye (type Fluo-4, Molecular Probes Europe BV, Leiden, the Netherlands) in a fluorescent imaging plate reader (FLIPR, Molecular Devices, Sunnyvale, USA), as described hereinafter. […]
The number of cells in the suspension is set to 3×10^5 per mL and 150 μL of this suspension are in each case introduced into a recess in the cell culture plates coated as described hereinbefore. In the incubator the plates are left for two to three days at 37° C., 5% by volume of CO2 and 95% relative humidity. Subsequently, the cells are loaded with 2 μM of Fluo-4 and 0.01% by volume of Pluronic F127 (Molecular Probes Europe BV, Leiden, the Netherlands) in HBSS buffer (Hank's buffered saline solution, Gibco Invitrogen GmbH, Karlsruhe, Germany) for 30 min at 37° C., washed 3 times with HBSS buffer and after further incubation for 15 minutes at room temperature used for Ca^2+ measurement in a FLIPR assay. The Ca^2+-dependent fluorescence is in this case measured before and after the addition of substances (λex=488 nm, λem=540 nm). Quantification is carried out by measuring the highest fluorescence intensity (FC, fluorescence counts) over time.
The FLIPR protocol consists of 2 substance additions. First the compounds to be tested (10 μM) are pipetted onto the cells and the Ca^2+ influx is compared with the control (capsaicin 10 μM). This provides the result in % activation based on the Ca^2+ signal after the addition of 10 μM of capsaicin (CP). After 5 minutes' incubation, 100 nM of capsaicin are applied and the Ca^2+ influx is also determined. Desensitising agonists and antagonists lead to suppression of the Ca^2+ influx. The % inhibition is calculated compared to the maximum achievable inhibition with 10 μM of capsazepine. Triple analyses (n=3) are carried out and repeated in at least 3 independent experiments (N=4).
Starting from the percentage displacement caused by different concentrations of the compounds to be tested of general formula I, IC50 inhibitory concentrations which cause a 50-percent displacement of capsaicin were calculated. Ki values for the test substances were obtained by conversion by means of the Cheng-Prusoff equation (Cheng, Prusoff; Biochem. Pharmacol. 22, 3099-3108, 1973).
The affinity of the compounds according to the invention for the vanilloid receptor 1 (VR1/TRPV1 receptor) was determined as described above (pharmacological method I).

T1 sequence (Q8NER1 whole entry): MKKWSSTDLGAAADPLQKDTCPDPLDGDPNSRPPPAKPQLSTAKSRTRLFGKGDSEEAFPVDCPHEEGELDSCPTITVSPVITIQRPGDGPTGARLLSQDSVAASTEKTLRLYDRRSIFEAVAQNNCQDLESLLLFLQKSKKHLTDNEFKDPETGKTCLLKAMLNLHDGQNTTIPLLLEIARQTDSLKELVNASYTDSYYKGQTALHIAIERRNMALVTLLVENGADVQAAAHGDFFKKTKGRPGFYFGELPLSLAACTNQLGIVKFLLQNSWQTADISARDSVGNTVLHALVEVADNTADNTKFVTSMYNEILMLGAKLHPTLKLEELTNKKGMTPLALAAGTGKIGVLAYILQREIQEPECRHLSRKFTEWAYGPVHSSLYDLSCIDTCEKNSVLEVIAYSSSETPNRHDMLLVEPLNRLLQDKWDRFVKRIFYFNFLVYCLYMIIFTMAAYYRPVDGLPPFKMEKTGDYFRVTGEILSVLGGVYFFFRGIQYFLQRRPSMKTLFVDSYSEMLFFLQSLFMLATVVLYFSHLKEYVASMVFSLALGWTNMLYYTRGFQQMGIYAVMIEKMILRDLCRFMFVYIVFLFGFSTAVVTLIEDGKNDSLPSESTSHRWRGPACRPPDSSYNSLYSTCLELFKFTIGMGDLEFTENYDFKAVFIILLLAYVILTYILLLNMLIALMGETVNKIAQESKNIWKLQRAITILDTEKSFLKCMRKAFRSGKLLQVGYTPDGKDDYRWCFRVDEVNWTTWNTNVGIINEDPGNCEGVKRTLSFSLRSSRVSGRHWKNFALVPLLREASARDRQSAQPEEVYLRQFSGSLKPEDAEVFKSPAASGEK

Going from CN(CCO)Cc1ccc(NC(=O)NCc2cc(C(F)(F)F)nn2-c2cccc(Cl)c2)cn1 [Example 135, 1-((1-(3-chlorophenyl)-3-(trifluoromethyl)-1H-pyrazol-5-yl)methyl)-3-(6-(((2-hydroxyethyl)(methyl)amino)methyl)pyridin-3-yl)urea] to Cc1ncc(NC(=O)NCc2cc(C(F)(F)F)nn2-c2cccc(Cl)c2)cn1 [Example 19, 1-((1-(3-chlorophenyl)-3-(trifluoromethyl)-1H-pyrazol-5-yl)methyl)-3-(2-methylpyrimidin-5-yl)urea], the inhibition at 5 µM rises from 22% to 45%.

First: COCCNc1ccc(NC(=O)NCc2cc(C(C)(C)C)nn2-c2cccc(Cl)c2)cn1 [Example 68, 1-((3-tert-butyl-1-(3-chlorophenyl)-1H-pyrazol-5-yl)methyl)-3-(6-(2-methoxyethylamino)pyridin-3-yl)urea]
Second: CC(C)(C)c1cc(CNC(=O)Cc2cccnc2)n(-c2cccc(Cl)c2)n1 [Example 6, N-((3-tert-butyl-1-(3-chlorophenyl)-1H-pyrazol-5-yl)methyl)-2-(pyridin-3-yl)acetamide]
The inhibition at 5 µM of the first is lower: 73% for the first, 89% for the second.

First: COc1ccc(-n2nc(C(F)(F)F)cc2CNC(=O)Nc2ccc(CO)nc2)cc1C [Example 37, 1-(6-(hydroxymethyl)pyridin-3-yl)-3-((1-(4-methoxy-3-methylphenyl)-3-(trifluoromethyl)-1H-pyrazol-5-yl)methyl)urea]
Second: COc1ncc(NC(=O)NCc2cc(C(F)(F)F)nn2-c2cccc(Cl)c2)cn1 [Example 130, 1-((1-(3-chlorophenyl)-3-(trifluoromethyl)-1H-pyrazol-5-yl)methyl)-3-(2-methoxypyrimidin-5-yl)urea]
The inhibition at 5 µM of the first is lower: 41% for the first, 47% for the second.

Same assay, conditions: capsaicin (Cap) as stimulus; Ki from IC50 by Cheng-Prusoff; read-out: (f) Ki (human being) [nM] Cap

First: CC(C(=O)NCc1cc(C(C)(C)C)nn1-c1cccc(Cl)c1)c1ccc(NC(=O)c2ccc(F)cc2)nc1 (stereo not shown) [Example 93, N-(5-(1-((3-tert-butyl-1-(3-chlorophenyl)-1H-pyrazol-5-yl)methylamino)-1-oxopropan-2-yl)pyridin-2-yl)-4-fluorobenzamide]
Second: CC(C(=O)NCc1cc(C(C)(C)C)nn1-c1cccc(Cl)c1)c1ccc(C(=O)Nc2ccc(F)cc2)nc1 (stereo not shown) [Example 60, 5-(1-((3-tert-butyl-1-(3-chlorophenyl)-1H-pyrazol-5-yl)methylamino)-1-oxopropan-2-yl)-N-(4-fluorophenyl)picolinamide]
The Ki of the first is 2-fold lower: 2 nM for the first, 4 nM for the second.

Going from CC(C)(C)c1cc(CNC(=O)Nc2ccc(N3CC(O)C3)nc2)n(-c2cccc(F)c2)n1 [Example 110, 1-((3-tert-butyl-1-(3-fluorophenyl)-1H-pyrazol-5-yl)methyl)-3-(6-(3-hydroxyazetidin-1-yl)pyridin-3-yl)urea] to CC(C)(C)c1cc(CNC(=O)Nc2ccc(N3CC[C@@H](O)C3)nc2)n(-c2cccc(Cl)c2)n1 [Example 126, (R)-1-((3-tert-butyl-1-(3-chlorophenyl)-1H-pyrazol-5-yl)methyl)-3-(6-(3-hydroxypyrrolidin-1-yl)pyridin-3-yl)urea], the Ki rises from 37 nM to 61 nM (1.6-fold). The first binds more tightly here.

First: O=C(NCc1cc(C(F)(F)F)nn1-c1cccc(Cl)c1)Nc1ccc(N2CC[C@H](O)C2)nc1 [Example 125, (S)-1-((1-(3-chlorophenyl)-3-(trifluoromethyl)-1H-pyrazol-5-yl)methyl)-3-(6-(3-hydroxypyrrolidin-1-yl)pyridin-3-yl)urea]
Second: Cc1cccc(-n2nc(C(F)(F)F)cc2CNC(=O)Nc2ccc(N3CC(O)C3)nc2)c1 [Example 114, 1-(6-(3-hydroxyazetidin-1-yl)pyridin-3-yl)-3-((1-m-tolyl-3-(trifluoromethyl)-1H-pyrazol-5-yl)methyl)urea]
The Ki of the first is 1.8-fold higher: 64 nM for the first, 35 nM for the second.

Going from CC(C(=O)NCc1cc(C(F)(F)F)nn1-c1cccc(Cl)c1)c1ccc(NC(=O)c2ccccc2)nc1 (stereo not shown) [Example 92, N-(5-(1-((1-(3-chlorophenyl)-3-(trifluoromethyl)-1H-pyrazol-5-yl)methylamino)-1-oxopropan-2-yl)pyridin-2-yl)benzamide] to CC(C(=O)NCc1cc(C(F)(F)F)nn1-c1cccc(Cl)c1)c1ccc(NC(=O)c2ccc(Cl)cc2)nc1 (stereo not shown) [Example 96, 4-chloro-N-(5-(1-((1-(3-chlorophenyl)-3-(trifluoromethyl)-1H-pyrazol-5-yl)methylamino)-1-oxopropan-2-yl)pyridin-2-yl)benzamide], the Ki falls from 26 nM to 3 nM (8.7-fold).

First: O=C(NCc1cc(C(F)(F)F)nn1-c1cccc(Cl)c1)Nc1cnc(CO)c(F)c1 [Example 50, 1-((1-(3-chlorophenyl)-3-(trifluoromethyl)-1H-pyrazol-5-yl)methyl)-3-(5-fluoro-6-(hydroxymethyl)pyridin-3-yl)urea]
Second: O=C(NCc1cc(C(F)(F)F)nn1-c1cccc(Cl)c1)Nc1cncc(F)c1 [Example 18, 1-((1-(3-chlorophenyl)-3-(trifluoromethyl)-1H-pyrazol-5-yl)methyl)-3-(5-fluoropyridin-3-yl)urea]
The Ki of the first is 1.6-fold lower: 24 nM for the first, 39 nM for the second. The first binds more tightly here.

O=C(NCc1cc(C(F)(F)F)nn1-c1cccc(Cl)c1)Nc1ccc(OCCO)nc1 [Example 133, 1-((1-(3-chlorophenyl)-3-(trifluoromethyl)-1H-pyrazol-5-yl)methyl)-3-(6-(2-hydroxyethoxy)pyridin-3-yl)urea] and Cc1cccc(-n2nc(C(F)(F)F)cc2CNC(=O)Nc2ccc(CO)nc2)c1 [Example 36, 1-(6-(hydroxymethyl)pyridin-3-yl)-3-((1-m-tolyl-3-(trifluoromethyl)-1H-pyrazol-5-yl)methyl)urea] are within 1.5-fold of each other in Ki: 88 nM for the first, 101 nM for the second.

Going from COc1cc(C(C)C(=O)NCc2cc(C(F)(F)F)nn2-c2cccc(Cl)c2)cnc1NS(C)(=O)=O (stereo not shown) [Example 104, N-((1-(3-chlorophenyl)-3-(trifluoromethyl)-1H-pyrazol-5-yl)methyl)-2-(5-methoxy-6-(methylsulfonamido)pyridin-3-yl)propanamide] to Cc1cncc(NC(=O)NCc2cc(C(F)(F)F)nn2-c2cccc(Cl)c2)c1 [Example 137, 1-((1-(3-chlorophenyl)-3-(trifluoromethyl)-1H-pyrazol-5-yl)methyl)-3-(5-methylpyridin-3-yl)urea], the Ki rises from 3 nM to 55 nM (18-fold).

O=C(Cc1cncnc1)NCc1cc(C(F)(F)F)nn1-c1cccc(Cl)c1 [Example 16, N-((1-(3-chlorophenyl)-3-(trifluoromethyl)-1H-pyrazol-5-yl)methyl)-2-(pyrimidin-5-yl)acetamide] and CC(C)(C)c1cc(CNC(=O)Nc2ccc(CO)cn2)n(-c2cccc(Cl)c2)n1 [Example 139, 1-((3-tert-butyl-1-(3-chlorophenyl)-1H-pyrazol-5-yl)methyl)-3-(5-(hydroxymethyl)pyridin-2-yl)urea] are within 1.5-fold of each other in Ki: 77 nM for the first, 109 nM for the second.

First: Cc1cc(-n2nc(C(F)(F)F)cc2CNC(=O)Nc2ccc(NCCO)nc2)ccc1Cl [Example 156, 1-((1-(4-chloro-3-methylphenyl)-3-(trifluoromethyl)-1H-pyrazol-5-yl)methyl)-3-(6-(2-hydroxyethylamino)pyridin-3-yl)urea]
Second: CN(CCO)c1ccc(NC(=O)NCc2cc(C(C)(C)C)nn2-c2cccc(Cl)c2)cn1 [Example 87, 1-((3-tert-butyl-1-(3-chlorophenyl)-1H-pyrazol-5-yl)methyl)-3-(6-((2-hydroxyethyl)(methyl)amino)pyridin-3-yl)urea]
The Ki of the first is 1.7-fold higher: 29 nM for the first, 17 nM for the second.

Same assay, conditions: capsaicin (Cap); human being

In the case of O=C(NCc1cc(C(F)(F)F)nn1-c1cccc(Cl)c1)Nc1ccc(CNCCO)nc1 [Example 134, 1-((1-(3-chlorophenyl)-3-(trifluoromethyl)-1H-pyrazol-5-yl)methyl)-3-(6-((2-hydroxyethylamino)methyl)pyridin-3-yl)urea], the “mode of action at VR1/TRPV1 (AG, pAG, NE), Cap” value (shortened to “mode of action at VR1/TRPV1”) is reported as “NE”.
In the case of COc1ccc(-n2nc(C(F)(F)F)cc2CNC(=O)Nc2ccc(CO)nc2)cc1F [Example 35, 1-((1-(3-fluoro-4-methoxyphenyl)-3-(trifluoromethyl)-1H-pyrazol-5-yl)methyl)-3-(6-(hydroxymethyl)pyridin-3-yl)urea], the “mode of action at VR1/TRPV1” value is reported as “NE”.
COCCNc1ccc(NC(=O)NCc2cc(C(C)(C)C)nn2-c2cccc(Cl)c2)cn1 [Example 68, 1-((3-tert-butyl-1-(3-chlorophenyl)-1H-pyrazol-5-yl)methyl)-3-(6-(2-methoxyethylamino)pyridin-3-yl)urea] was tested, and the “mode of action at VR1/TRPV1” value was “AG”.
With CC(C)(C)c1cc(CNC(=O)Cc2cccnc2)n(-c2cccc(Cl)c2)n1 [Example 6, N-((3-tert-butyl-1-(3-chlorophenyl)-1H-pyrazol-5-yl)methyl)-2-(pyridin-3-yl)acetamide] the “mode of action at VR1/TRPV1” value was “AG”.
